Results as given in patent publication US20060121607A1, “Compositions and methods for neural differentiation of embryonic stem cells” (priority 2002, published 2006).

Tests used:
human ES cells = experiment: Comparison of basic media for TH+ cell formation in human embryoid bodies; format: cell-based; details: DMEM and 100 μM L-proline, absence of FGF2
Protocol: Embryoid bodies/neurospheres from human ES cells were grown without the use of MEDII conditioned media Media and supplements used were Hams DMEM/F12 (Gibco Cat # 11320-033), ITSS (Gibco Cat#17502-048) and N2 (Gibco Cat#41400-045).
The ability of basic media with supplements (DMEM+N2 or ITSS) to promote neural differentiation of hES cells was compared with medium that included F12: (DMEM:F12 (1:1)+N2 or ITSS).
Trypsinised Human ES cells were seeded at approximately 10 to 20 cells/μl of media into 10 ml of neurosphere media (DMEM:F12, 10 μg/ml heparin (SIGMA), 1/50 B27 (GIBCO), 1/100 pen/strep, 1/100 ITSS) in a T75 culture flask. 10 ng/ml FGF2 was optionally added but the culture medium was preferably mitogen-free (no FGF2). Cultures were maintained in the media for 9 days after which the embryoid bodies were optionally transferred to poly-L-ornithine/laminin plates and cultured in the same media for a further 6 days. The embryoid bodies so formed (EB^15), whether from adherent or suspension culture, were then triturated to near single cell form and used for either transplantation or for the formation of neurospheres/cell reaggregates.
Example 15 was repeated utilising human ES cells and a minimal media consisting of DMEM and 100 μM L-proline. The results were similar to those described in Example 5. […]

SSEA4 selected HESCs = details: 50 μM Proline, around 3 weeks suspension
Description: Essentially serum free embryoid bodies were generated from bulk passaged monolayer HESC colonies as described in Example 5, in the presence of the media set out below.

[1] = tested on: sfEBM single cell suspension; experiment: Clonal derivation of colonies from dispersed sfEBM in suspension; format: cell-based, human; details: medium containing the factor alone
Protocol: sfEBMs were transferred to tissue culture dishes (4-well or 35 mm) and were rinsed with Ca^2+/Mg^2+ free PBS. After settling, the PBS was aspirated and 1 or 2 ml of 0.25% trypsin was added. sfEBMs were dispersed to a single cell suspension, with occasional doublets or triplets, by gentle trituration using a 1 ml pipette. The cell suspension was transferred to a 15 ml tube, diluted with 9 or 18 ml of medium and pelleted by centrifugation. The pellet was resuspended in DMEM/F12 supplemented with 1×N2 supplement, FGF-2 (4 ng/ml), 50% MEDII and added to agarose coated suspension dishes at low density (0.5-5 cells/μl). These cultures were not disturbed for 4-5 days, when small uniform colonies could be observed. Colonies could be harvested at approximately 10 days.
In an attempt to derive clones of essentially serum free embryoid bodies, trypsin was used to generate single cell suspensions from sfEBM cultures and low density cell suspensions, from 0-0.5-5 cells/μl, were incubated in suspension dishes. […] The synergistic activities of FGF2 and MEDII in the derivation of clonal sfEBMs was unexpected. […] The colonies produced were presumed to be clonal, and proliferated to as much as 0.2 mm in diameter within 10 days. The cloning efficiency was in the order of 4.5-6%.

Molecule | TH+ cells in EB^17 bodies (human ES cells) [%] | appearance of sfEBPs with low cell death and distinct neural rosette structures (SSEA4 selected HESCs) | generation of clonal colonies [1]
O=C(O)[C@@H]1CCCN1 [L-proline] | ~50 | noticeably enhanced | 
FGF-2: fibroblast growth factor FGF-2 |  |  | No clonal colonies
